The values that follow come from patent US6908942B2, “6-amino-2,2-dimethyl-3,4,6-trisubstituted benzopyran derivatives and their construction by parallel synthesis on solid-phase” (Korea Research Institute of Chemical Technology, priority 2002, dated 2005).

For this assay, the system named is lipid peroxidation induced by iron. The assay is described as follows: Inhibitory effect on iron-induced lipid peroxidation in rat brain homogenate (MDA measurement, N-methyl-2-phenylindole, Bioxytech LPO-586 Kit). The assay is classed as biochemical. The conditions noted are these: FeCl2 400 μM, 30 min at 37° C., decrease of MDA vs DMSO control, absorption at 586 nm. Here is the method: The inhibitory effect of the present compounds on lipid peroxidation induced by iron was evaluated as follows:
Rat brain was homogenized in Krebs buffer (15 mM HEPES, 10 mM glucose, 140 mM NaCl, 3.6 mM KCl, 1.5 mM CaCl2, 1.4 mM KH2PO4 and 0.7 mM MgCl, pH 7.4) and centrifuged at 12,000 rpm to obtain the supernatant serving as a raw material of lipid. To the brain homogenates, FeCl^2 was added to give a final concentration of 400 μM and allowed to stand for 30 min at 37° C. for promoting oxidation. Each of the compounds to be tested was added to give a concentration of 12.5 μM and a control group was solely added with dimethylsulfoxide (DMSO).
When iron is added to brain homogenates, oxidation is promoted to increase the amount of malondialdehyde (MDA) as lipid peroxidation product. Therefore, in this Example, the level of lipid peroxidation was evaluated according to MDA measurement method. In general MDA measurement, the test sample is reacted with TBA (2-thiobarbituric acid) and the absorbance at 530 nm was measured. However, since such process includes a boiling step, it is unsuitable for dealing with test samples in large quantity. Therefore, in this Example, N-methyl-2-phenylindole was used as a color developing reagent in place of TBA so as to avoid boiling step. […] The inhibitory effect on lipid peroxidation of test compounds was evaluated by calculating the decreased level of MDA in percentage based on the amount of MDA in the control group. For the test compounds showing more than 80% inhibitory effect, the concentration-lipid peroxidation inhibition curves were plotted with reference to the decrease rate of MDA amount based on the amount of MDA in the control group and their IC50 values was calculated through least linear regression analysis.
In addition, the representative antioxidants commercialized such as Promethazine, Trolox, Probucol and N-propyl gallate were examined in terms of 50% inhibition concentration (IC50) according to the above procedure and the results are shown in Table 4.
Consider `CNc1ccc2c(c1)C(OCCC1CCCCC1)C(OCc1ccc(C)cc1)C(C)(C)O2` (centres unmarked) [Compound 5-104], for which the IC50 was 4.01 µM.
Compound `CC1(C)Oc2ccc(NCc3ccc(F)cc3)cc2C(OCc2ccccc2)C1OCc1cccc(Cl)c1` (centres unmarked) [Compound 5-519] showed an IC50 of 4.6 µM.
Turning to `CCCCOC1c2cc(NC)ccc2OC(C)(C)C1OC(=O)c1ccc(C)cc1` (centres unmarked) [Compound 5-1516], the IC50 is 6.34 µM.
In the case of `CC1(C)Oc2ccc(NCc3ccccc3)cc2C(OCc2ccccc2)C1OCc1ccccc1` (centres unmarked) [Compound 5-289] it was 1.32 µM; in that of `C#CCOC1C(OC)c2cc(NCc3ccc(F)cc3)ccc2OC1(C)C` (centres unmarked) [Compound 5-464], 3.81 µM.
In turn, `CCOC1c2cc(NCc3ccc(F)cc3)ccc2OC(C)(C)C1OCc1ccccc1C` (centres unmarked) [Compound 5-469] had an IC50 of 4.38 µM.
In turn, `CCCCOC1c2cc(NC)ccc2OC(C)(C)C1OCc1ccc(C(C)(C)C)cc1` (centres unmarked) [Compound 5-51] gave an IC50 of 5.2 µM.
For `C=CCOC1C(OC(C)C)c2cc(NCc3ccc(F)cc3)ccc2OC1(C)C` (centres unmarked) [Compound 5-495], it took 2.04 µM to reach half-maximal inhibition (IC50).
For `COC1c2cc(NCc3ccc(C)cc3)ccc2OC(C)(C)C1OC(=O)c1ccc(F)cc1` (centres unmarked) [Compound 5-1838] the value was 1.31 µM; for `CCNc1ccc2c(c1)C(OCC)C(OC(=O)c1ccco1)C(C)(C)O2` (centres unmarked) [Compound 5-1570], 3.03 µM; for `CCCCOC1c2cc(NC)ccc2OC(C)(C)C1OCc1cccc(Cl)c1` (centres unmarked) [Compound 5-55], 2.61 µM.
Take `CCNc1ccc2c(c1)C(OC)C(OC(=O)CC(C)(C)C)C(C)(C)O2` (centres unmarked) [Compound 5-1552]: inhibition was half-maximal at 5.43 µM (IC50).
In the case of `COC1c2cc(NCc3ccc(C)cc3)ccc2OC(C)(C)C1OC(C)=O` (centres unmarked) [Compound 5-1831], inhibition was half-maximal at 2.71 µM (IC50).
For `COC1c2cc(NCc3ccc(F)cc3)ccc2OC(C)(C)C1OC(=O)c1ccco1` (centres unmarked) [Compound 5-1770] the value was 3.11 µM; for `Cc1c(C)c2c(c(C)c1O)CCC(C)(C(=O)O)O2` (centres unmarked) [Trolox, reference compound], 24.6 µM; for `CCCCOC1c2cc(NC)ccc2OC(C)(C)C1OCc1cccc(F)c1` (centres unmarked) [Compound 5-52], 0.98 µM.
`C#CCOC1C(OCCCC)c2cc(NCc3ccc(F)cc3)ccc2OC1(C)C` (centres unmarked) [Compound 5-512] returned an IC50 of 3.6 µM.
Compound `Cc1ccc(COC2C(OCCc3ccccc3)c3cc(NCc4ccccc4)ccc3OC2(C)C)cc1` (centres unmarked) [Compound 5-312] returned an IC50 of 4.13 µM.
In the case of `Cc1ccc(C(=O)OC2C(OCc3ccccc3)c3cc(NCc4ccc(F)cc4)ccc3OC2(C)C)cc1` (centres unmarked) [Compound 5-1806], the IC50 is 5.85 µM.
Compound `C/C=C/COC1C(OCc2ccccc2)c2cc(NC)ccc2OC1(C)C` (centres unmarked) [Compound 5-78] gave an IC50 of 1.14 µM.
In turn, `CCCCOC1c2cc(NCc3ccc(F)cc3)ccc2OC(C)(C)C1OC(=O)c1ccc(OC)cc1` (centres unmarked) [Compound 5-1797] showed an IC50 of 3.56 µM.
As for `CCNc1ccc2c(c1)C(OCC)C(OC(=O)c1ccc(F)cc1)C(C)(C)O2` (centres unmarked) [Compound 5-1568], half-maximal inhibition (IC50) required 4.09 µM.
For `COC1c2cc(NCc3ccc(F)cc3)ccc2OC(C)(C)C1OC(=O)CC(C)(C)C` (centres unmarked) [Compound 5-1762], it took 1.8 µM to reach half-maximal inhibition (IC50).
`COC1c2cc(NCc3ccc(C)cc3)ccc2OC(C)(C)C1OCc1cccc(F)c1` (centres unmarked) [Compound 5-564] came in with an IC50 of 4.33 µM.
For the compound `CCOC1c2cc(NC)ccc2OC(C)(C)C1OCc1cccc(F)c1` (centres unmarked) [Compound 5-68], the IC50 was 1.39 µM.
For `COC1c2cc(NCc3ccc(C)cc3)ccc2OC(C)(C)C1OC(=O)CC(C)(C)C` (centres unmarked) [Compound 5-1832] the value was 1.09 µM.
Consider `C#CCOC1C(OCCCC)c2cc(NC)ccc2OC1(C)C` (centres unmarked) [Compound 5-64], for which the IC50 was determined as 2.57 µM.
As to `CCOC1c2cc(NCc3ccc(F)cc3)ccc2OC(C)(C)C1OCc1cccc(F)c1` (centres unmarked) [Compound 5-468], the IC50 turned out to be 4.27 µM.
In the case of `Cc1ccccc1COC1C(OCCc2ccccc2)c2cc(NCc3ccccc3)ccc2OC1(C)C` (centres unmarked) [Compound 5-309], the IC50 came to 2.9 µM.
Consider `CCNc1ccc2c(c1)C(OCC)C(OC(=O)CC(C)(C)C)C(C)(C)O2` (centres unmarked) [Compound 5-1562], for which the midpoint of inhibition, the IC50, lay at 3.03 µM.
In the case of `C/C=C/COC1C(OCC)c2cc(NCc3ccc(F)cc3)ccc2OC1(C)C` (centres unmarked) [Compound 5-478] it was 6.21 µM.
Consider `CNc1ccc2c(c1)C(OCc1ccccc1)C(OCc1cccc(Cl)c1)C(C)(C)O2` (centres unmarked) [Compound 5-71], for which the IC50 was found to be 1.7 µM.
The compound `CCOC1c2cc(NCc3ccc(F)cc3)ccc2OC(C)(C)C1OCc1cccc(Cl)c1` (centres unmarked) [Compound 5-471] returned a half-maximal inhibitory concentration (IC50) of 4.85 µM.
`CCNc1ccc2c(c1)C(OCC)C(OC(=O)c1cccs1)C(C)(C)O2` (centres unmarked) [Compound 5-1569]: the midpoint of inhibition, the IC50, lay at 3.41 µM.
The compound `CC(C)(C)c1ccc(COC2C(OCCc3ccccc3)c3cc(NCc4ccccc4)ccc3OC2(C)C)cc1` (centres unmarked) [Compound 5-307] registered an IC50 of 3.55 µM.
`CNc1ccc2c(c1)C(OCc1ccccc1)C(OCc1ccccc1Cl)C(C)(C)O2` (centres unmarked) [Compound 5-70] yielded an IC50 of 1.15 µM.
For `CNc1ccc2c(c1)C(OC)C(OC(=O)c1ccco1)C(C)(C)O2` (centres unmarked) [Compound 5-1490], the IC50 was determined as 3.04 µM.
In the case of `CCNc1ccc2c(c1)C(OCC)C(OC(C)=O)C(C)(C)O2` (centres unmarked) [Compound 5-1561] it was 2.89 µM; in that of `CNc1ccc2c(c1)C(OCCC1CCCCC1)C(OCc1ccc(F)cc1)C(C)(C)O2` (centres unmarked) [Compound 5-98], 5.3 µM.
`CCNc1ccc2c(c1)C(OC)C(OC(=O)c1ccc(F)cc1)C(C)(C)O2` (centres unmarked) [Compound 5-1558]: the IC50 was 3.37 µM.
Compound `C#CCOC1C(OCC)c2cc(NCc3ccc(F)cc3)ccc2OC1(C)C` (centres unmarked) [Compound 5-480] had an IC50 of 5.55 µM.
In turn, `CCOC1c2cc(NCc3ccc(F)cc3)ccc2OC(C)(C)C1OCc1ccc2ccccc2c1` (centres unmarked) [Compound 5-474] came in with an IC50 of 3.45 µM.
With `CC1(C)Oc2ccc(NCc3ccc(F)cc3)cc2C(OCc2ccccc2)C1OC(=O)c1ccco1` (centres unmarked) [Compound 5-1810], the IC50 came to 4.34 µM.
`COC1c2cc(NCc3ccc(C)cc3)ccc2OC(C)(C)C1OCc1ccccc1Cl` (centres unmarked) [Compound 5-566] came in with an IC50 of 5.73 µM.
With `CNc1ccc2c(c1)C(OC)C(OC(=O)c1cccs1)C(C)(C)O2` (centres unmarked) [Compound 5-1489], the concentration for half-maximal inhibition (IC50) came to 3.33 µM.
`CC1(C)Oc2ccc(NCc3ccccc3)cc2C(OCc2ccccc2)C1OCc1ccc2ccccc2c1` (centres unmarked) [Compound 5-298] registered an IC50 of 6.07 µM.
On to `COc1ccc(C(=O)OC2C(OC)c3cc(NCc4ccc(F)cc4)ccc3OC2(C)C)cc1` (centres unmarked) [Compound 5-1767], for which the IC50 was 2.63 µM.
In turn, `C=CCOC1C(OCCCC)c2cc(NCc3ccc(F)cc3)ccc2OC1(C)C` (centres unmarked) [Compound 5-511] returned an IC50 of 0.12 µM.
On to `CC1(C)Oc2ccc(NCc3ccccc3)cc2C(OCCc2ccccc2)C1OCc1cc(C(F)F)cc(C(F)(F)F)c1` (centres unmarked) [Compound 5-315], for which half-maximal inhibition (IC50) was put at 3.43 µM.
For `COC1c2cc(NCc3ccc(F)cc3)ccc2OC(C)(C)C1OC(=O)c1ccc(F)cc1` (centres unmarked) [Compound 5-1768] the value was 2.73 µM.
In turn, `CCOC1c2cc(NCc3ccc(F)cc3)ccc2OC(C)(C)C1OCc1ccccc1` (centres unmarked) [Compound 5-465] came in with an IC50 of 6.41 µM.
In the case of `CNc1ccc2c(c1)C(OCCC1CCCCC1)C(OCc1cccc(Cl)c1)C(C)(C)O2` (centres unmarked) [Compound 5-103] it was 5.1 µM; in that of `Cc1ccccc1COC1C(OCc2ccccc2)c2cc(NCc3ccccc3)ccc2OC1(C)C` (centres unmarked) [Compound 5-293], 3.68 µM.

The term IC50 denotes the point on the concentration scale where inhibition reaches its midpoint. A higher IC50 goes with a need for much substance.
